For nine molecules, logP and pest or weed control results are on record in patent US8785692B2, “Substituted phenylamidines and the use thereof as fungicides” (priority 2007, dated 2014).

Where two headings read alike, the source gives them in different places.

The term logP denotes the decadic logarithm of the partition coefficient of the neutral form, usually between octanol and water. A lower logP goes with a more hydrophilic compound.

The nature of series [1]: logP (neutral / acidic, pH 2.3).
The subject of a further series is Sphaerotheca fuliginea. Description: Sphaerotheca test (cucumber) / protective. Format: in vivo. Conditions: Podosphaera fuliginea, 168 h, read-out: efficacy. The procedure: Sphaerotheca Test (Cucumber)/Protective
Solvent: 49 parts by weight of N,N-dimethylformamide
Emulsifier: 1 part by weight of alkylaryl polyglycol ether
To produce a suitable preparation of active compound, 1 part by weight of active compound is mixed with the stated amounts of solvent and emulsifier, and the concentrate is diluted with water to the desired concentration.
To test for protective activity, young cucumber plants are sprayed with the active compound preparation at the stated application rate. 1 day after the treatment, the plants are inoculated with a spore suspension of Sphaerotheca fuliginea. The plants are then placed in a greenhouse at 70% relative atmospheric humidity and a temperature of 23° C.
Evaluation is carried out 7 days after the inoculation. 0% means an efficacy which corresponds to that of the control, whereas an efficacy of 100% means that no infection is observed.

The mark [2] stands for this setting: cucumber, protective, 500 ppm active compound, evaluation 7 days after inoculation.

Take `CCN(C)C=Nc1cc(C)c(/C(C)=N/OCc2ccc(Cl)c(Cl)c2)cc1C` [Compound 30, N′-(4-{(1E)-N-[(3,4-dichlorobenzyl)oxy]-ethanimidoyl}-2,5-dimethylphenyl)-N-ethyl-N-methylimidoformamide]: the lipophilicity (logP) in series [1] came to 5.79; in series [1] (pH 2.3), 2.71. Moreover, the pest or weed control at 500 ppm in the series on Sphaerotheca fuliginea was at least 70%.

The molecule `CCN(C)C=Nc1cc(C)c(/C=N/OCc2ccccc2)cc1C` [Compound 3, N′-(4-{(E)-[(benzyloxy)imino]methyl}-2,5-di-methylphenyl)-N-ethyl-N-methylimidoformamide] gave a logP in series [1] (pH 2.3) of 2.02. Moreover, in the series with Sphaerotheca fuliginea (setting [2]), the pest or weed control at 500 ppm is at least 70%.

As for `CCCO/N=C(\C)c1cc(C)c(N=CN(C)CC)cc1C` [Compound 37, N′-{4-[(1E)-N-(n-propoxy)ethanimidoyl]-2,5-dimethylphenyl}-N-ethyl-N-methylimidoformamide], the figures for the logP in series [1] and in series [1] (pH 2.3) were 4.43 and 1.9, respectively. Further, in the series with Sphaerotheca fuliginea (setting [2]), the pest or weed control at 500 ppm was at least 70%.

The molecule `CCN(C)C=Nc1cc(C)c(/C(C)=N/Oc2ccccc2)cc1C` [Compound 11, N′-{2,5-dimethyl-4-[(1E)-N-phenoxyethanimidoyl]-phenyl}-N-ethyl-N-methylimidoformamide] had a log partition coefficient (logP) in series [1] (pH 2.3) of 2.21. In addition, the pest or weed control at 500 ppm in the series with Sphaerotheca fuliginea (setting [2]) is at least 70%.

For the molecule `CC#CCO/N=C(\C)c1cc(C)c(N=CN(C)CC)cc1C` [Compound 16, N′-{4-[(1E)-N-(but-2-yn-1-yloxy)ethanimidoyl]-2,5-dimethylphenyl}-N-ethyl-N-methylimidoformamide], the log partition coefficient (logP) came to 3.91 in series [1] and 1.72 in series [1] (pH 2.3). Moreover, the pest or weed control at 500 ppm in the series on Sphaerotheca fuliginea was at least 70%.

As for `CCN(C)C=Nc1cc(C)c(/C(C)=N/OCCc2ccc(Cl)cc2)cc1C` [Compound 25, N′-(4-{(1E)-N-[2-(4-chloro-phenyl)ethoxy]ethanimidoyl}-2,5-dimethylphenyl)-N-ethyl-N-methylimidoformamide], the log partition coefficient (logP) in series [1] was 5.55; in series [1] (pH 2.3), 2.56. For the same molecule, the pest or weed control at 500 ppm in the series on Sphaerotheca fuliginea (setting [2]) is at least 70%.

In the case of `CCN(C)C=Nc1cc(C)c(/C(C)=N/OC2CCCC2)cc1C` [Compound 14, N′-{4-[(1E)-N-(cyclopentyloxy)ethanimidoyl]-2,5-dimethylphenyl}-N-ethyl-N-methylimidoformamide], the logP in series [1] came to 5.24; in series [1] (pH 2.3), 2.2. The pest or weed control at 500 ppm in the series on Sphaerotheca fuliginea (setting [2]) was at least 70%.

As for `C#CC(C)O/N=C(\C)c1cc(C)c(N=CN(C)CC)cc1C` (stereo not shown) [Compound 15, N′-(2,5-dimethyl-4-{(1E)-N-[(1-methylprop-2-yn-1-yl)oxy]ethanimidoyl}phenyl)-N-ethyl-N-methylimidoformamide], the lipophilicity (logP) is 4 in series [1] and 1.8 in series [1] (pH 2.3). In addition, the pest or weed control at 500 ppm with Sphaerotheca fuliginea (setting [2]) was at least 70%.

`CCN(C)C=Nc1cc(C)c(/C(C)=N/OCc2nc(-c3ccccc3)cs2)cc1C` [Compound 21, N′-(2,5-dimethyl-4-{(1E)-N-[(4-phenyl-1,3-thiazol-2-yl)meth-oxy]ethanimidoyl}phenyl)-N-ethyl-N-methylimidoformamide]: the results for the lipophilicity (logP) in series [1] and in series [1] (pH 2.3) were 5.1 and 2.3, respectively. In the series with Sphaerotheca fuliginea (setting [2]), the pest or weed control at 500 ppm is at least 70%.
